Assay results reported in PubChem BioAssay (NCI).
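Cells were grown in 96-well plates and exposed to each compound for 48 hours at five concentrations; endpoints were interpolated linearly between bracketing concentrations, or set to the highest concentration if not reached. TGI: total growth inhibition.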

These molecules were tested on HOP-18 NSCLC (assay: NCI tumour cell line growth inhibition, 48 h).
With `CC(=O)Nc1ccc(/C=C/c2ccc(NC(=O)Nc3ccc(/C=C/c4ccc(NC(C)=O)cc4S(=O)(=O)O)c(S(=O)(=O)O)c3)cc2S(=O)(=O)O)c(S(=O)(=O)O)c1` the TGI was > 100 µM.
With `O=C(c1cccc2ccccc12)N1CCC(C2CCN(C(=O)c3cccc4ccccc34)CC2)CC1` the TGI was > 100 µM.

Each molecule was assayed on HOP-62 NSCLC (assay: NCI tumour cell line growth inhibition, 48 h).
`CCOC(=O)CNC(=O)N(CC)C12CC3CC(CC(C3)C1)C2` gave a TGI of 266 µM.
In the case of `CCOC(=O)CCC(=O)C1c2cccc(O)c2C(=O)c2c(O)cc(C)cc21` (configuration not stated), the TGI is reported as 2.21 µM.
In the case of `CC(=O)Nc1ccc(/C=C/c2ccc(NC(=O)Nc3ccc(/C=C/c4ccc(NC(C)=O)cc4S(=O)(=O)O)c(S(=O)(=O)O)c3)cc2S(=O)(=O)O)c(S(=O)(=O)O)c1`, the TGI is reported as > 100 µM.
`O=C(c1cccc2ccccc12)N1CCC(C2CCN(C(=O)c3cccc4ccccc34)CC2)CC1` was tested, and the TGI was > 100 µM.

What follows are molecules tested on HOP-92 NSCLC (assay: NCI tumour cell line growth inhibition, 48 h).
`CCOC(=O)CNC(=O)N(CC)C12CC3CC(CC(C3)C1)C2` gave a TGI of 222 µM.
Work on `CCOC(=O)CCC(=O)C1c2cccc(O)c2C(=O)c2c(O)cc(C)cc21` (configuration not stated) yielded a TGI of 3.04 µM.
In the case of `CC(=O)Nc1ccc(/C=C/c2ccc(NC(=O)Nc3ccc(/C=C/c4ccc(NC(C)=O)cc4S(=O)(=O)O)c(S(=O)(=O)O)c3)cc2S(=O)(=O)O)c(S(=O)(=O)O)c1`, the TGI is reported as > 75.6 µM.
With `O=C(c1cccc2ccccc12)N1CCC(C2CCN(C(=O)c3cccc4ccccc34)CC2)CC1` the TGI was > 100 µM.

The molecules below were run on HT29 colon (assay: NCI tumour cell line growth inhibition, 48 h).
In the case of `CCOC(=O)CNC(=O)N(CC)C12CC3CC(CC(C3)C1)C2`, the TGI is reported as 204 µM.
In the case of `CCOC(=O)CCC(=O)C1c2cccc(O)c2C(=O)c2c(O)cc(C)cc21` (configuration not stated), the TGI is reported as 7.17 µM.
`CC(=O)Nc1ccc(/C=C/c2ccc(NC(=O)Nc3ccc(/C=C/c4ccc(NC(C)=O)cc4S(=O)(=O)O)c(S(=O)(=O)O)c3)cc2S(=O)(=O)O)c(S(=O)(=O)O)c1` was tested, and the TGI was > 100 µM.
With `O=C(c1cccc2ccccc12)N1CCC(C2CCN(C(=O)c3cccc4ccccc34)CC2)CC1` the TGI was > 100 µM.

Each molecule was assayed on IGROV1 ovarian (assay: NCI tumour cell line growth inhibition, 48 h).
For `CCOC(=O)CNC(=O)N(CC)C12CC3CC(CC(C3)C1)C2`, the TGI was 524 µM.
`CCOC(=O)CCC(=O)C1c2cccc(O)c2C(=O)c2c(O)cc(C)cc21` (configuration not stated) was tested, and the TGI was 0.846 µM.
In the case of `CC(=O)Nc1ccc(/C=C/c2ccc(NC(=O)Nc3ccc(/C=C/c4ccc(NC(C)=O)cc4S(=O)(=O)O)c(S(=O)(=O)O)c3)cc2S(=O)(=O)O)c(S(=O)(=O)O)c1`, the TGI is reported as > 100 µM.
For `O=C(c1cccc2ccccc12)N1CCC(C2CCN(C(=O)c3cccc4ccccc34)CC2)CC1`, the TGI was > 100 µM.

What follows are molecules tested on K-562 leukemia (assay: NCI tumour cell line growth inhibition, 48 h).
In the case of `CCOC(=O)CNC(=O)N(CC)C12CC3CC(CC(C3)C1)C2`, the TGI is reported as 409 µM.
Molecule `CCOC(=O)CCC(=O)C1c2cccc(O)c2C(=O)c2c(O)cc(C)cc21` (configuration not stated) has a TGI of 10.9 µM.
For `CC(=O)Nc1ccc(/C=C/c2ccc(NC(=O)Nc3ccc(/C=C/c4ccc(NC(C)=O)cc4S(=O)(=O)O)c(S(=O)(=O)O)c3)cc2S(=O)(=O)O)c(S(=O)(=O)O)c1`, the TGI was > 100 µM.
With `O=C(c1cccc2ccccc12)N1CCC(C2CCN(C(=O)c3cccc4ccccc34)CC2)CC1` the TGI was > 100 µM.

The molecules below were run on KM12 colon (assay: NCI tumour cell line growth inhibition, 48 h).
For `CCOC(=O)CNC(=O)N(CC)C12CC3CC(CC(C3)C1)C2`, the TGI was 453 µM.
In the case of `CCOC(=O)CCC(=O)C1c2cccc(O)c2C(=O)c2c(O)cc(C)cc21` (configuration not stated), the TGI is reported as 0.563 µM.
With `CC(=O)Nc1ccc(/C=C/c2ccc(NC(=O)Nc3ccc(/C=C/c4ccc(NC(C)=O)cc4S(=O)(=O)O)c(S(=O)(=O)O)c3)cc2S(=O)(=O)O)c(S(=O)(=O)O)c1` the TGI was > 100 µM.
For `O=C(c1cccc2ccccc12)N1CCC(C2CCN(C(=O)c3cccc4ccccc34)CC2)CC1`, the TGI was > 100 µM.

Each molecule was assayed on KM20L2 colon (assay: NCI tumour cell line growth inhibition, 48 h).
`CCOC(=O)CNC(=O)N(CC)C12CC3CC(CC(C3)C1)C2` was tested, and the TGI was 223 µM.
Work on `CCOC(=O)CCC(=O)C1c2cccc(O)c2C(=O)c2c(O)cc(C)cc21` (configuration not stated) yielded a TGI of 3.51 µM.
`CC(=O)Nc1ccc(/C=C/c2ccc(NC(=O)Nc3ccc(/C=C/c4ccc(NC(C)=O)cc4S(=O)(=O)O)c(S(=O)(=O)O)c3)cc2S(=O)(=O)O)c(S(=O)(=O)O)c1` was tested, and the TGI was > 100 µM.
For `O=C(c1cccc2ccccc12)N1CCC(C2CCN(C(=O)c3cccc4ccccc34)CC2)CC1`, the TGI was > 100 µM.

These molecules were tested on LOX IMVI melanoma (assay: NCI tumour cell line growth inhibition, 48 h).
Work on `CCOC(=O)CNC(=O)N(CC)C12CC3CC(CC(C3)C1)C2` yielded a TGI of 252 µM.
For `CCOC(=O)CCC(=O)C1c2cccc(O)c2C(=O)c2c(O)cc(C)cc21` (configuration not stated), the TGI was 1.97 µM.
`CC(=O)Nc1ccc(/C=C/c2ccc(NC(=O)Nc3ccc(/C=C/c4ccc(NC(C)=O)cc4S(=O)(=O)O)c(S(=O)(=O)O)c3)cc2S(=O)(=O)O)c(S(=O)(=O)O)c1` was tested, and the TGI was > 100 µM.
`O=C(c1cccc2ccccc12)N1CCC(C2CCN(C(=O)c3cccc4ccccc34)CC2)CC1` was tested, and the TGI was > 100 µM.

These molecules were tested on LXFL 529 NSCLC (assay: NCI tumour cell line growth inhibition, 48 h).
With `CCOC(=O)CCC(=O)C1c2cccc(O)c2C(=O)c2c(O)cc(C)cc21` (configuration not stated) the TGI was 1.75 µM.
For `O=C(c1cccc2ccccc12)N1CCC(C2CCN(C(=O)c3cccc4ccccc34)CC2)CC1`, the TGI was > 100 µM.

What follows are molecules tested on M14 melanoma (assay: NCI tumour cell line growth inhibition, 48 h).
Work on `CCOC(=O)CCC(=O)C1c2cccc(O)c2C(=O)c2c(O)cc(C)cc21` (configuration not stated) yielded a TGI of 2.71 µM.
For `O=C(c1cccc2ccccc12)N1CCC(C2CCN(C(=O)c3cccc4ccccc34)CC2)CC1`, the TGI was > 100 µM.

These molecules were tested on M19-MEL melanoma (assay: NCI tumour cell line growth inhibition, 48 h).
For `CCOC(=O)CNC(=O)N(CC)C12CC3CC(CC(C3)C1)C2`, the TGI was 380 µM.
In the case of `CCOC(=O)CCC(=O)C1c2cccc(O)c2C(=O)c2c(O)cc(C)cc21` (configuration not stated), the TGI is reported as 1.31 µM.
`CC(=O)Nc1ccc(/C=C/c2ccc(NC(=O)Nc3ccc(/C=C/c4ccc(NC(C)=O)cc4S(=O)(=O)O)c(S(=O)(=O)O)c3)cc2S(=O)(=O)O)c(S(=O)(=O)O)c1` was tested, and the TGI was > 100 µM.
With `O=C(c1cccc2ccccc12)N1CCC(C2CCN(C(=O)c3cccc4ccccc34)CC2)CC1` the TGI was > 100 µM.

What follows are molecules tested on MALME-3M melanoma (assay: NCI tumour cell line growth inhibition, 48 h).
In the case of `CCOC(=O)CNC(=O)N(CC)C12CC3CC(CC(C3)C1)C2`, the TGI is reported as 278 µM.
In the case of `CCOC(=O)CCC(=O)C1c2cccc(O)c2C(=O)c2c(O)cc(C)cc21` (configuration not stated), the TGI is reported as 2.65 µM.
With `CC(=O)Nc1ccc(/C=C/c2ccc(NC(=O)Nc3ccc(/C=C/c4ccc(NC(C)=O)cc4S(=O)(=O)O)c(S(=O)(=O)O)c3)cc2S(=O)(=O)O)c(S(=O)(=O)O)c1` the TGI was > 100 µM.
`O=C(c1cccc2ccccc12)N1CCC(C2CCN(C(=O)c3cccc4ccccc34)CC2)CC1` was tested, and the TGI was > 100 µM.

These molecules were tested on MCF7 breast (assay: NCI tumour cell line growth inhibition, 48 h).
`CCOC(=O)CNC(=O)N(CC)C12CC3CC(CC(C3)C1)C2` gave a TGI of 444 µM.
For `CC(=O)Nc1ccc(/C=C/c2ccc(NC(=O)Nc3ccc(/C=C/c4ccc(NC(C)=O)cc4S(=O)(=O)O)c(S(=O)(=O)O)c3)cc2S(=O)(=O)O)c(S(=O)(=O)O)c1`, the TGI was > 100 µM.

The molecules below were run on MOLT-4 leukemia (assay: NCI tumour cell line growth inhibition, 48 h).
Work on `CCOC(=O)CNC(=O)N(CC)C12CC3CC(CC(C3)C1)C2` yielded a TGI of 322 µM.
Work on `CCOC(=O)CCC(=O)C1c2cccc(O)c2C(=O)c2c(O)cc(C)cc21` (configuration not stated) yielded a TGI of 6.76 µM.
For `CC(=O)Nc1ccc(/C=C/c2ccc(NC(=O)Nc3ccc(/C=C/c4ccc(NC(C)=O)cc4S(=O)(=O)O)c(S(=O)(=O)O)c3)cc2S(=O)(=O)O)c(S(=O)(=O)O)c1`, the TGI was > 100 µM.
With `O=C(c1cccc2ccccc12)N1CCC(C2CCN(C(=O)c3cccc4ccccc34)CC2)CC1` the TGI was > 100 µM.

Each molecule was assayed on NCI-H226 lung (assay: NCI tumour cell line growth inhibition, 48 h).
`CCOC(=O)CNC(=O)N(CC)C12CC3CC(CC(C3)C1)C2` was tested, and the TGI was 371 µM.
Molecule `CCOC(=O)CCC(=O)C1c2cccc(O)c2C(=O)c2c(O)cc(C)cc21` (configuration not stated) has a TGI of 1.75 µM.
In the case of `CC(=O)Nc1ccc(/C=C/c2ccc(NC(=O)Nc3ccc(/C=C/c4ccc(NC(C)=O)cc4S(=O)(=O)O)c(S(=O)(=O)O)c3)cc2S(=O)(=O)O)c(S(=O)(=O)O)c1`, the TGI is reported as > 100 µM.
With `O=C(c1cccc2ccccc12)N1CCC(C2CCN(C(=O)c3cccc4ccccc34)CC2)CC1` the TGI was > 100 µM.

Each molecule was assayed on NCI-H23 lung (assay: NCI tumour cell line growth inhibition, 48 h).
For `CCOC(=O)CNC(=O)N(CC)C12CC3CC(CC(C3)C1)C2`, the TGI was 419 µM.
